Like-named read-outs stand apart in the source and are kept apart here.
What was measured:
[1] = biological target: T1, BSA (Bos taurus, UniProt P02769); set-up: Intact protein LC/MS covalent labelling, fragments in pools of five, 200 uM each, 4 °C; settings: 24 h, 4 °C, pool of five; 200 µM; covalent
T1 construct: gene ALB

[2] = biological target: T2, NUDT7 (Homo sapiens, UniProt P0C024); set-up: Intact protein LC/MS covalent labelling, fragments in pools of five, 200 uM each, 4 °C; settings: 24 h, 4 °C, pool of five; 200 µM; covalent
T2 construct: residues 14-235, E. coli, pNIC28-Bsa4, N-terminal His6 tag removed by TEV, construct 26672 Da

[3] = biological target: T3, OTUB2 (OTUB2A) (Homo sapiens, UniProt Q96DC9); set-up: Intact protein LC/MS covalent labelling, fragments in pools of five, 200 uM each, 4 °C; settings: 24 h, 4 °C, pool of five; 200 µM; covalent
T3 construct: full length residues 1-234, E. coli BL21(DE3)-R3, His tag removed by TEV, construct 27312 Da
T3 sequence (Q96DC9 1-234): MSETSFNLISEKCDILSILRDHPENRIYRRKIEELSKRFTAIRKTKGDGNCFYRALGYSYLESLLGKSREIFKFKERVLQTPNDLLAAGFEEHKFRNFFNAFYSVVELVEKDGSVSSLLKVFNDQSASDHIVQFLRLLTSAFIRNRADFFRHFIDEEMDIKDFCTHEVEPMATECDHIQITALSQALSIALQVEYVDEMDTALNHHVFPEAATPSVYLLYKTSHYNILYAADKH

[4] = biological target: T4, PCAF (Homo sapiens, UniProt Q92831); set-up: Intact protein LC/MS covalent labelling, fragments in pools of five, 200 uM each, 4 °C; settings: 24 h, 4 °C, pool of five; 200 µM; covalent
T4 construct: gene KAT2B

[5] = in vitro; set-up: species or system CCD841, HEK293; settings: human, hb2 cells, read-out: HB-2 Cells Viability (%)
[6] = in vitro; set-up: species or system HB2, HEK293; settings: human, ccd841 cells
[7] = in vitro; set-up: species or system HB2, CCD841; settings: human, hek293 cells

T4 sequence (Q92831 whole entry, the tested form may be a part): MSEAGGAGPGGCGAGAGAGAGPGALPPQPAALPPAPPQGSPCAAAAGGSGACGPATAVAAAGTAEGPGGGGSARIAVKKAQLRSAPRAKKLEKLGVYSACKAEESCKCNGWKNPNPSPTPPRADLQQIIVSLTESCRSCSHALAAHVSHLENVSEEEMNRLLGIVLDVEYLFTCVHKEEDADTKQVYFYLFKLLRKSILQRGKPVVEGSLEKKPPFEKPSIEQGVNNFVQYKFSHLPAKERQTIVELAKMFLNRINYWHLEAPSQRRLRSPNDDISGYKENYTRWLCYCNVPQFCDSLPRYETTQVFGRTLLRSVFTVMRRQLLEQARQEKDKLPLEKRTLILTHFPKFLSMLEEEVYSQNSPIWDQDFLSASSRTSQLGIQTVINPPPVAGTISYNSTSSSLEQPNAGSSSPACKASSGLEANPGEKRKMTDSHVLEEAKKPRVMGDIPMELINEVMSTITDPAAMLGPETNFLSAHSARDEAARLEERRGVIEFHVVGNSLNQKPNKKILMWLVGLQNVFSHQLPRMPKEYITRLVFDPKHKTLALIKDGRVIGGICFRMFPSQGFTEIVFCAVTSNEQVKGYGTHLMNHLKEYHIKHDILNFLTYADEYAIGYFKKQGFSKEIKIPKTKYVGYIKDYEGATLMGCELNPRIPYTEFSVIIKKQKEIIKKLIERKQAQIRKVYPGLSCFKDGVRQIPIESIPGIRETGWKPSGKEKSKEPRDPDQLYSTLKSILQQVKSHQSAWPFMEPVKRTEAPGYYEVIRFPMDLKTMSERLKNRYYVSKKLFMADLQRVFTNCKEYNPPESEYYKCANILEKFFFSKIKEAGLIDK
T2 sequence (P0C024 14-235): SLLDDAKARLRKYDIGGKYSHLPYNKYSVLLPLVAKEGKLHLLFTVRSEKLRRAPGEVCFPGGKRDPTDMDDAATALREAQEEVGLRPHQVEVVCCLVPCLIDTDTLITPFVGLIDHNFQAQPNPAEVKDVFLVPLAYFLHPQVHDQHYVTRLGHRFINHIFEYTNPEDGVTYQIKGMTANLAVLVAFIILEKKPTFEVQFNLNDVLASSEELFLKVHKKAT
T1 sequence (P02769 whole entry, the tested form may be a part): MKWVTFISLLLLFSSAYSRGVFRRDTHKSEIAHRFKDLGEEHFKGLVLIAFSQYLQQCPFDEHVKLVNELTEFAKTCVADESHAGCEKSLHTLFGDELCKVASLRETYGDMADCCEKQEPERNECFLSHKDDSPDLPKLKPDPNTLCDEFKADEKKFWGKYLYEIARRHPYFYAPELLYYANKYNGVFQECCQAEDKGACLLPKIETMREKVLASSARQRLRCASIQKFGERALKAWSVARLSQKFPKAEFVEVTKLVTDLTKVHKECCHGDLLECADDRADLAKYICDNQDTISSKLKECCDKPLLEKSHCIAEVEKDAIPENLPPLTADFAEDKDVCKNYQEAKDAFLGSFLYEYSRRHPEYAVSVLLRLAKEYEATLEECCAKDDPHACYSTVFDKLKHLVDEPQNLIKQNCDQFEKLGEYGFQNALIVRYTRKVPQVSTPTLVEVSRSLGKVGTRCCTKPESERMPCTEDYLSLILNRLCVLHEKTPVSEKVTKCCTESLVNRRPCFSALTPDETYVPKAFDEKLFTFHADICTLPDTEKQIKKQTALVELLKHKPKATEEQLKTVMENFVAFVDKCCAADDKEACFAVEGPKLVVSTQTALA

| Compound | BSA [1] | NUDT7 [2] | OTUB2 [3] | PCAF [4] | viability at 48 h, 10 µM [5] [%] | viability at 48 h, 10 µM [6] [%] | viability at 48 h, 10 µM [7] [%] |
| --- | --- | --- | --- | --- | --- | --- | --- |
| O=C(CCl)Nc1cc([N+](=O)[O-])ccc1F [PCM-0102544] | 0 | 0 | 0.31 | 0 | 1.6 | 2.5 | 1.8 |
| Cc1ccc(CN(C)C(=O)CCl)c(C)c1 [PCM-0102552] | 0 | 0.19 | 0 | 0 | 54.5 | 69.9 | 62.6 |
| C=CC(=O)N1CCC(n2cccn2)CC1 [PCM-0102555] | 0 | 0 | 0 | 0 | 102 | 104 | 109 |
| CC(c1ccc(Cl)cc1)N(C)C(=O)CCl (stereo not drawn) [PCM-0102556] | 0 | 0.39 | 0 | 0 | 4.9 | 11.5 | 3.1 |
| C=CC(=O)N1CCCN(Cc2cn3cc(Cl)ccc3n2)CC1 [PCM-0102565] | 0 | 0.18 | 0 | 0 | 106 | 104 | 105 |
| C=CC(=O)NC1CCC(N2CCCS2(=O)=O)CC1 (stereo not drawn) [PCM-0102568] | 0 | 0 | 0 | 0 | 107 | 93.8 | 78 |
| CC(NC(=O)CCl)C1CC2CCC1C2 (stereo not drawn) [PCM-0102572] | 0 | 0 | 0 | 0 | 92 | 91.1 | 80.7 |
| Cc1ccc(NC(=O)CCl)cc1I [PCM-0102577] | 0 | 0.34 | 0.8 | 0 | 4.6 | 17.9 | 2.4 |
| O=C(CCl)NCc1ccc2c(c1)OCO2 [PCM-0102578] | 0 | 0 | 0.16 | 0 | 97.5 | 99.9 | 85.6 |
| Cc1cccc(N(C(=O)CCl)C2C=CS(=O)(=O)C2)c1 (stereo not drawn) [PCM-0102579] | 0 | 0.4 | 0 | 0 | 29.8 | 16.2 | 6.4 |
| N#Cc1c(NC(=O)CCl)sc2c1CCCC2 [PCM-0102580] | 0 | 0.72 | 0.1 | 0 | 77.2 | 78 | 67.4 |
| O=C(CCl)Nc1ccc(N2CCOCC2)cc1 [PCM-0102582] | 0 | 0 | 0.54 | 0 | 74.9 | 79.5 | 57.2 |
| C=CC(=O)NC1CCCc2cnn(C(C)C)c21 (stereo not drawn) [PCM-0102583] | 0 | 0 | 0 | 0 | 105 | 120 | 96.8 |

The next lines start with results.

| BSA [1] | NUDT7 [2] | OTUB2 [3] | PCAF [4] | Compound | viability at 48 h, 10 µM [5] [%] | viability at 48 h, 10 µM [6] [%] | viability at 48 h, 10 µM [7] [%] |
| --- | --- | --- | --- | --- | --- | --- | --- |
| 0 | 0 | 0 | 0 | C=CC(=O)Nc1cc(-c2ccnn2C)ccc1C [PCM-0102543] | 103 | 134 | 93.5 |
| 0 | 0.18 | 0.32 | 0 | CC1(C)C(=O)Nc2ccccc2N1C(=O)CCl [PCM-0102546] | 48 | 78.5 | 57.2 |
| 0 | 0 | 0.09 | 0 | N#CSc1ccc(NC(=O)CCl)c(F)c1 [PCM-0102548] | 19.2 | 26.5 | 55.2 |
| 0 | 0 | 0 | 0 | C=CC(=O)N1CCCc2ccccc21 [PCM-0102549] | 111 | 109 | 111 |
| 0 | 0.11 | 0 | 0 | O=C(CCl)N=c1sccn1Cc1ccccc1Cl [PCM-0102550] | 27.2 | 3.8 | 6 |
| 0 | 0 | 0 | 0 | C=CC(=O)Nc1ccc(N2CCOCC2)cc1 [PCM-0102551] | 99.9 | 113 | 82.5 |
| 0 | 0 | 0 | 0 | CC(C)(O)CNC(=O)CCl [PCM-0102554] | 103 | 99.5 | 93.2 |
| 0 | 0 | 0 | 0 | C=CC(=O)NCc1cnn2ccccc12 [PCM-0102561] | 108 | 124 | 95.2 |
| 0 | 0 | 0 | 0 | C=CC(=O)NC1CC(C)(C)OC1(C)C (stereo not drawn) [PCM-0102562] | 107 | 114 | 94.8 |
| 0 | 0 | 0 | 0 | C=CC(=O)NC1CCC2(CC1)OCCO2 [PCM-0102564] | 109 | 132 | 75.1 |
| 0 | 0 | 0 | 0 | C=CC(=O)NC1CCc2nc(-c3cc(F)ccc3F)cn2C1 (stereo not drawn) [PCM-0102566] | 97.4 | 106 | 78 |
| 0 | 0.09 | 0.09 | 0 | O=C(NC1CCN(C(=O)CCl)CC1)c1ccccc1 [PCM-0102575] | 63.8 | 68.2 | 40.6 |
| 0 | 0 | 0 | 0 | O=C(CCl)Nc1c(Cl)cc(Cl)cc1C(=O)O [PCM-0102576] | 100 | 105 | 100 |
| 0 | 0 | 0 | 0 | C=CC(=O)Nc1ccccc1C(F)(F)F [PCM-0102581] | 108 | 121 | 123 |
